Measured values published in patent US7662825B2, “N-pyrazinyl-phenylsulphonamides and their use in the treatment of chemokine mediated diseases” (AstraZeneca AB, priority 2002, dated 2010).

| SMILES | melting point [°C] |
| --- | --- |
| COc1nc(C)cnc1NS(=O)(=O)c1ccccc1F [Example 13, N-(3-Methoxy-5-methyl-2-pyrazinyl)-2-fluorobenzenesulphonamide] | 150 to 152 |
| Cc1cnc(NS(=O)(=O)c2cccc(Cl)c2Cl)c(OCc2ccco2)n1 [Example 20, 2,3-Dichloro-N-[3-(2-furanylmethoxy)-5-methyl-2-pyrazinyl]benzenesulphonamide] | 127 to 129 |
| Cc1cnc(NS(=O)(=O)c2cccc(Cl)c2Cl)c(OCc2cc(C)on2)n1 [Example 21, 2,3-Dichloro-N-[5-methyl-3-(5-methyl-3-isoxazolylmethoxy)-2-pyrazinyl]benzenesulphonamide] | 155 to 156 |
| Cc1cccc(COc2nc(C)cnc2NS(=O)(=O)c2cccc(Cl)c2Cl)n1 [Example 23, 2,3-Dichloro-N-[5-methyl-3-(6-methyl-2-pyridinylmethoxy)-2-pyrazinyl]benzenesulphonamide] | 164 to 165 |
| Cc1cnc(NS(=O)(=O)c2cccc(Cl)c2Cl)c(OCc2cccnc2)n1 [Example 24, 2,3-Dichloro-N-[5-methyl-3-(3-pyridinylmethoxy)-2-pyrazinyl]benzenesulphonamide] | 160 to 161 |
| Cc1cnc(NS(=O)(=O)c2cccc(Cl)c2Cl)c(OCc2ccncc2)n1 [Example 25, 2,3-Dichloro-N-[5-methyl-3-(4-pyridinylmethoxy)-2-pyrazinyl]benzenesulphonamide] | 183 to 184 |
| Cc1cnc(NS(=O)(=O)c2cccc(Cl)c2Cl)c(OCc2ncccc2C)n1 [Example 26, 2,3-Dichloro-N-[5-methyl-3-(3-methyl-2-pyridinylmethoxy)-2-pyrazinyl]benzenesulphonamide] | 137 to 138 |
| Cc1cnc(NS(=O)(=O)c2cccc(Cl)c2Cl)c(OCc2cccnn2)n1 [Example 27, 2,3-Dichloro-N-[5-methyl-3-(3-pyridazinylmethoxy)-2-pyrazinyl]benzenesulphonamide] | 119 to 124 |
| O=S(=O)(Nc1nccnc1OCc1ccccn1)c1cccc(Cl)c1Cl [Example 28, 2,3-Dichloro-N-[3-(2-pyridinylmethoxy)-2-pyrazinyl]benzenesulphonamide] | 167 to 168 |
| O=S(=O)(Nc1nccnc1OCc1cccnc1)c1cccc(Cl)c1Cl [Example 29, 2,3-Dichloro-N-[3-(3-pyridinylmethoxy)-2-pyrazinyl]benzenesulphonamide] | 138 to 139 |
| COc1nccnc1NS(=O)(=O)c1cccc(Cl)c1Cl [Example 30, 2,3-Dichloro-N-(3-methoxy-2-pyrazinyl)benzenesulphonamide] | 183 to 184 |
| O=S(=O)(Nc1ncc(Br)nc1OCc1cnccn1)c1cccc(Cl)c1Cl [Example 31, N-[5-Bromo-3-(2-pyrazinylmethoxy)-2-pyrazinyl]-2,3-dichlorobenzenesulphonamide] | 207 to 209 |
| Cn1cc(COc2nc(Br)cnc2NS(=O)(=O)c2cccc(Cl)c2Cl)ccc1=O [Example 32, N-[5-Bromo-3-(1-methyl-6-oxo-1,6-dihydro-3-pyridinylmethoxy)-2-pyrazinyl]-2,3-dichlorobenzenesulphonamide] | 169 to 170 |
| O=S(=O)(Nc1ncc(Br)nc1OCc1cccnn1)c1cccc(Cl)c1Cl [Example 33] | 115 to 120 |
| O=S(=O)(Nc1ncc(Br)nc1OCc1cccnc1)c1cccc(Cl)c1Cl [Example 34, N-[5-Bromo-3-(3-pyridinylmethoxy)-2-pyrazinyl]-2,3-dichlorobenzenesulphonamide] | 204 to 206 |
| O=S(=O)(Nc1ncc(Br)nc1OCc1cncnc1)c1cccc(Cl)c1Cl [Example 35, N-[5-Bromo-3-(5-pyrimidinylmethoxy)-2-pyrazinyl]-2,3-dichlorobenzenesulphonamide] | 208 to 209 |
| O=S(=O)(Nc1ncc(Cl)nc1OCc1cccnc1)c1cccc(Cl)c1Cl [Example 36, N-[5-Chloro-3-(3-pyridinylmethoxy)-2-pyrazinyl]-2,3-dichlorobenzenesulphonamide] | 200 to 204 |
| O=S(=O)(Nc1ncc(Cl)nc1OCc1cncnc1)c1cccc(Cl)c1Cl [Example 37, N-[5-Chloro-3-(5-pyrimidinylmethoxy)-2-pyrazinyl]-2,3-dichlorobenzenesulphonamide] | 205 to 206 |
| COc1ncc(Cl)nc1NS(=O)(=O)c1ccccc1Cl [Example 38, 2-Chloro-N-(6-chloro-3-methoxy-2-pyrazinyl)benezenesulphonamide] | 172 to 173 |
| COc1ncc(Cl)nc1NS(=O)(=O)c1cccc(Cl)c1 [Example 39, 3-Chloro-N-(6-chloro-3-methoxy-2-pyrazinyl)benezenesulphonamide] | 126 to 127 |
| COc1ncc(Cl)nc1NS(=O)(=O)c1ccc(Cl)cc1 [Example 40, 4-Chloro-N-(6-chloro-3-methoxy-2-pyrazinyl)benezenesulphonamide] | 174 to 175 |
| COc1ncc(Cl)nc1NS(=O)(=O)c1ccc(Cl)cc1Cl [Example 41, N-(6-Chloro-3-methoxy-2-pyrazinyl)-2,4-dichlorobenezenesulphonamide] | 189 to 190 |
| COc1ncc(Cl)nc1NS(=O)(=O)c1ccc(Cl)c(Cl)c1 [Example 42, N-(6-Chloro-3-methoxy-2-pyrazinyl)-3,4-dichlorobenezenesulphonamide] | 176 to 177 |

| SMILES | melting point [°C] |
| --- | --- |
| COc1nc(C)cnc1NS(=O)(=O)c1cccc(Cl)c1C [Example 43, 3-Chloro-N-(3-methoxy-5-methyl-2-pyrazinyl)-2-methylbenezenesulphonamide] | 133 to 135 |
| COc1nc(C)cnc1NS(=O)(=O)c1cccc(Cl)c1 [Example 45, 3-Chloro-N-(3-methoxy-5-methyl-2-pyrazinyl)benezenesulphonamide] | 123 to 125 |
| COc1nc(C)cnc1NS(=O)(=O)c1ccc(Cl)cc1 [Example 46, 4-Chloro-N-(3-methoxy-5-methyl-2-pyrazinyl)benezenesulphonamide] | 155 to 156 |
| COc1nc(C)cnc1NS(=O)(=O)c1ccc(Cl)cc1Cl [Example 47, 2,4-Dichloro-N-(3-methoxy-5-methyl-2-pyrazinyl)benezenesulphonamide] | 135 to 136 |
| COc1nc(C)cnc1NS(=O)(=O)c1ccc(Cl)c(Cl)c1 [Example 48, 3,4-Dichloro-N-(3-methoxy-5-methyl-2-pyrazinyl)benezenesulphonamide] | 148 to 149 |
| COc1nc(Br)cnc1NS(=O)(=O)c1ccccc1OC(F)(F)F [Example 49, N-(5-Bromo-3-methoxy-2-pyrazinyl)-2-trifluoromethoxybenezenesulphonamide] | 156 to 157 |
| COc1nc(Cl)cnc1NS(=O)(=O)c1cccc(Cl)c1C [Example 50, 3-Chloro-N-(5-chloro-3-methoxy-2-pyrazinyl)-2-methylbenzenesulphonamide] | 150 to 152 |
| COc1nc(Cl)cnc1NS(=O)(=O)c1ccccc1Cl [Example 51, 2-Chloro-N-(5-chloro-3-methoxy-2-pyrazinyl)benzenesulphonamide] | 190 to 192 |
| COc1nc(Cl)cnc1NS(=O)(=O)c1cccc(Cl)c1 [Example 52, 3-Chloro-N-(5-chloro-3-methoxy-2-pyrazinyl)benzenesulphonamide] | 129 to 130 |
| COc1nc(Cl)cnc1NS(=O)(=O)c1ccc(Cl)cc1 [Example 53, 4-Chloro-N-(5-chloro-3-methoxy-2-pyrazinyl)benzenesulphonamide] | 179 to 180 |
| COc1nc(Cl)cnc1NS(=O)(=O)c1ccc(Cl)cc1Cl [Example 54, N-(5-Chloro-3-methoxy-2-pyrazinyl)-2,4-dichlorobenzenesulphonamide] | 170 to 171 |
| COc1nc(N2CCOCC2)cnc1NS(=O)(=O)c1cccc(Cl)c1Cl [Example 55, 2,3-Dichloro-N-[3-methoxy-5-(4-morpholinyl)-2-pyrazinyl]benzenesulphonamide] | 167 to 168 |
| COc1cnc(NS(=O)(=O)c2cccc(Cl)c2Cl)c(OC)n1 [Example 56, 2,3-Dichloro-N-[3,5-dimethoxy-2-pyrazinyl]benzenesulphonamide] | 138 to 139 |
| COc1nc(N2CCCC2)cnc1NS(=O)(=O)c1cccc(Cl)c1Cl [Example 57] | 179 to 180 |
| COc1nc(Cl)c(Cl)nc1NS(=O)(=O)c1cccc(Cl)c1C [Example 58, 3-Chloro-N-(5,6-dichloro-3-methoxy-2-pyrazinyl)-2-methylbenzenesulphonamide] | 177 to 178 |
| COc1nc(Cl)c(Cl)nc1NS(=O)(=O)c1cccc(Cl)c1Cl [Example 59, 2,3-Dichloro-N-(5,6-dichloro-3-methoxy-2-pyrazinyl)benzenesulphonamide] | 172 to 173 |
| COc1nc(Cl)c(Cl)nc1NS(=O)(=O)c1ccccc1Cl [Example 60, 2-Chloro-N-(5,6-dichloro-3-methoxy-2-pyrazinyl)benzenesulphonamide] | 217 to 218 |
| COc1nc(Cl)c(Cl)nc1NS(=O)(=O)c1cccc(Cl)c1 [Example 61, 3-Chloro-N-(5,6-dichloro-3-methoxy-2-pyrazinyl)benzenesulphonamide] | 171 to 172 |
| COc1nc(Cl)c(Cl)nc1NS(=O)(=O)c1ccc(Cl)cc1 [Example 62, 4-Chloro-N-(5,6-dichloro-3-methoxy-2-pyrazinyl)benzenesulphonamide] | 186 to 187 |
| COc1nc(Cl)c(Cl)nc1NS(=O)(=O)c1ccc(Cl)cc1Cl [Example 63, 2,4-Dichloro-N-(5,6-dichloro-3-methoxy-2-pyrazinyl)benzenesulphonamide] | 171 to 172 |
| COc1nc(Cl)c(Cl)nc1NS(=O)(=O)c1ccc(Cl)c(Cl)c1 [Example 64, 3,4-Dichloro-N-(5,6-dichloro-3-methoxy-2-pyrazinyl)benzenesulphonamide] | 189 to 191 |
| COc1nc(C)c(C)nc1NS(=O)(=O)c1cccc(Cl)c1Cl [Example 65, 2,3-Dichloro-N-(3-methoxy-5,6-dimethyl-2-pyrazinyl)benzenesulphonamide] | 165 to 166 |
